Our source for the EC50 values is patent publication US10214478B2, “Amantadine nitrate compounds with neural protective effect, and preparation and medical use thereof” (GUANGZHOU MAGPIE PHARMACEUTICALS CO., LTD., priority 2016, dated 2019).

The EC50 is the concentration giving half of the maximal effect.

For the experiment, the system named is primary cerebellum granule cells of rats. In words: Protective effects of compounds on primary cerebellum granule cells of rats (glutamate-induced excitotoxic injury, MTT). It is filed as cell-based. To be noted: pre-protection 2 h, 200 iM glutamate 24 h, MTT cell viability; read-out: EC50, protective effects of the compounds on rat's nerve cells. How it is done:
Isolated primary cerebellum granule cells of infant rats were inoculated in 96-well plates with 1.2×10^5/well by using 10% FBS+25 mM KCl+2 mM Glutamine+1% of double-antibody BME medium. After 24 hours, cytarabine with a final concentration of 10 iM was added to inhibit the proliferation of neurogliocyte cells. After the day 4, glucose with the final concentration of 5 mM was added every four days to complement energy metabolism and water evaporation of cells. The materials were placed in a cell incubator (37° C., 5% CO2) to be cultured for 10 days. […] After pre-protection for 2 h, 200 iM of glutamate was added to induce cell damage for 24 h, and then MTT was added to culture for 4 h. The supernatant fraction was sucked, and 150 iL of DMSO was added to each well for dissolving. After blending with shaking, the light absorption values under 570 nm wavelength was measured with a microplate reader, and the viability of cells was calculated. Cell viability (%)=absorbance of different groups/absorbance of the normal control group×100%.
Consider `CCC12CC3CC(N)(C1)CC(O[N+](=O)[O-])(C3)C2` (stereo not shown) [NM-003], for which the 50% effective concentration (EC50) came to 15.4 µM. To `CCC12CC3(N)CC(CC)(C1)CC(O[N+](=O)[O-])(C3)C2` [YQW-036, reference compound] belongs 31.4 µM; to `CC12CC3CC(N)(C1)CC(O[N+](=O)[O-])(C3)C2` (stereo not shown) [NM-001], 24.6 µM. Then `CCC12CC3CC(N)(C1)CC(CO[N+](=O)[O-])(C3)C2` (stereo not shown) [NM-004], with 8.12 µM; and `CCC12CC3CC(N)(C1)CC(CCCO[N+](=O)[O-])(C3)C2` (stereo not shown) [NM-005], with 6.06 µM; and `NC12CC3CC(CCO[N+](=O)[O-])(C1)CC(CCO[N+](=O)[O-])(C3)C2` [NM-009], with 5.2 µM. Then `CC(CO[N+](=O)[O-])CC12CC3CC(N)(C1)CC(CC(C)CO[N+](=O)[O-])(C3)C2` (stereo not shown) [NM-012], with 9.3 µM.
